Experimental data reported in ChEMBL document CHEMBL1152860, “Synthesis and antiproliferative activity of 3-amino-N-phenyl-1H-indazole-1-carboxamides” (2009).

What was measured:
Format in all cases: functional
K562 = experiment: Growth inhibition of human K562 cells after 48 hrs by SRB assay; details: K562, 48 h
DU-145 = experiment: Growth inhibition of human DU145 cells after 48 hrs by SRB assay; details: DU-145, 48 h
EKVX = experiment: Growth inhibition of human EKVX cells after 48 hrs by SRB assay
786-0 = experiment: Growth inhibition of human 786-0 cells after 48 hrs by SRB assay; details: 786-0, 48 h
BT-549 = experiment: Growth inhibition of human BT549 cells after 48 hrs by SRB assay; details: BT-549, 48 h
HL-60(TB) = experiment: Growth inhibition of human HL-60(TB) cells after 48 hrs by SRB assay; details: HL-60, 48 h
SK-MEL-28 = experiment: Growth inhibition of human SK-MEL-28 cells after 48 hrs by SRB assay; details: SK-MEL-28, 48 h
HCT-15 = experiment: Growth inhibition of human HCT15 cells after 48 hrs by SRB assay; details: HCT-15, 48 h
MCF7 = experiment: Growth inhibition of human MCF7 cells after 48 hrs by SRB assay; details: MCF7, 48 h
OVCAR-3 = experiment: Growth inhibition of human OVCAR-3 cells after 48 hrs by SRB assay; details: OVCAR-3, 48 h
HOP-92 = experiment: Growth inhibition of human HOP92 cells after 48 hrs by SRB assay; details: HOP-92, 48 h
SF-539 = experiment: Growth inhibition of human SF539 cells after 48 hrs by SRB assay; details: SF-539, 48 h
SR = experiment: Growth inhibition of human SR cells after 48 hrs by SRB assay
PC-3 = experiment: Growth inhibition of human PC3 cells after 48 hrs by SRB assay; details: PC-3, 48 h
A498 = experiment: Growth inhibition of human A498 cells after 48 hrs by SRB assay; details: A498, 48 h
SF-268 = experiment: Growth inhibition of human SF268 cells after 48 hrs by SRB assay; details: SF-268, 48 h
OVCAR-8 = experiment: Growth inhibition of human OVCAR8 cells after 48 hrs by SRB assay; details: OVCAR-8, 48 h
T47D = experiment: Growth inhibition of human T47D cells after 48 hrs by SRB assay
OVCAR-5 = experiment: Growth inhibition of human OVCAR5 cells after 48 hrs by SRB assay; details: OVCAR-5, 48 h
OVCAR-4 = experiment: Growth inhibition of human OVCAR4 cells after 48 hrs by SRB assay; details: OVCAR-4, 48 h
NCI-H322M = experiment: Growth inhibition of human NCI-H322M cells after 48 hrs by SRB assay
SK-MEL-5 = experiment: Growth inhibition of human SK-MEL-5 cells after 48 hrs by SRB assay; details: SK-MEL-5, 48 h
SW-620 = experiment: Growth inhibition of human SW620 cells after 48 hrs by SRB assay; details: SW-620, 48 h
SF-295 = experiment: Growth inhibition of human SF295 cells after 48 hrs by SRB assay; details: SF-295, 48 h
SNB-19 = experiment: Growth inhibition of human SNB19 cells after 48 hrs by SRB assay; details: SNB-19, 48 h
KM12 = experiment: Growth inhibition of human KM12 cells after 48 hrs by SRB assay; details: KM12, 48 h
SN12C = experiment: Growth inhibition of human SN12C cells after 48 hrs by SRB assay
NCI-H522 = experiment: Growth inhibition of human NCI-H522 cells after 48 hrs by SRB assay; details: NCI-H522, 48 h
HCT-116 = experiment: Growth inhibition of human HCT116 cells after 48 hrs by SRB assay; details: HCT-116, 48 h
MDA-MB-231 = experiment: Growth inhibition of human MDA-MB-231 cells after 48 hrs by SRB assay; details: MDA-MB-231, 48 h
TK-10 = experiment: Growth inhibition of human TK10 cells after 48 hrs by SRB assay; details: TK-10, 48 h
U-251 = experiment: Growth inhibition of human U251 cells after 48 hrs by SRB assay; details: U-251, 48 h
UACC-257 = experiment: Growth inhibition of human UACC257 cells after 48 hrs by SRB assay; details: UACC-257, 48 h
ACHN = experiment: Growth inhibition of human ACHN cells after 48 hrs by SRB assay
COLO 205 = experiment: Growth inhibition of human COLO205 cells after 48 hrs by SRB assay; details: COLO 205, 48 h
RXF 393 = experiment: Growth inhibition of human […] cells after 48 hrs by SRB assay; details: RXF 393, 48 h
IGROV-1 = experiment: Growth inhibition of human IGROV1 cells after 48 hrs by SRB assay; details: IGROV-1, 48 h
Malme-3M = experiment: Growth inhibition of human MALME-3M cells after 48 hrs by SRB assay
HT-29 = experiment: Growth inhibition of human HT-29 cells after 48 hrs by SRB assay; details: HT-29, 48 h
[1] = Growth inhibition of human Hs 578T cells after 48 hrs by SRB assay
CAKI-1 = experiment: Growth inhibition of human Caki1 cells after 48 hrs by SRB assay; details: CAKI-1, 48 h
M14 = experiment: Growth inhibition of human M14 cells after 48 hrs by SRB assay; details: M14, 48 h
MDA-MB-435 = experiment: Growth inhibition of human MDA-MB-435 cells after 48 hrs by SRB assay; details: MDA-MB-435, 48 h
NCI-H23 = experiment: Growth inhibition of human NCI-H23 cells after 48 hrs by SRB assay; details: NCI-H23, 48 h
MOLT-4 = experiment: Growth inhibition of human MOLT4 cells after 48 hrs by SRB assay; details: MOLT-4, 48 h
NCI/ADR-RES = experiment: Growth inhibition of human NCI/ADR-RES cells after 48 hrs by SRB assay
A549 = experiment: Growth inhibition of human A549 cells after 48 hrs by SRB assay; details: A549, 48 h
NCI-H460 = experiment: Growth inhibition of human NCI-H460 cells after 48 hrs by SRB assay; details: NCI-H460, 48 h
HOP-62 = experiment: Growth inhibition of human HOP62 cells after 48 hrs by SRB assay; details: HOP-62, 48 h
LOX IMVI = experiment: Growth inhibition of human LOXIMVI cells after 48 hrs by SRB assay
UO-31 = experiment: Growth inhibition of human UO31 cells after 48 hrs by SRB assay; details: UO-31, 48 h
SK-MEL-2 = experiment: Growth inhibition of human SK-MEL-2 cells after 48 hrs by SRB assay; details: SK-MEL-2, 48 h
HCC 2998 = experiment: Growth inhibition of human HCC2998 cells after 48 hrs by SRB assay; details: HCC 2998, 48 h
RPMI-8226 = experiment: Growth inhibition of human RPMI8226 cells after 48 hrs by SRB assay; details: RPMI-8226, 48 h
NCI-H226 = experiment: Growth inhibition of human NCI-H226 cells after 48 hrs by SRB assay; details: NCI-H226, 48 h
UACC-62 = experiment: Growth inhibition of human UACC62 cells after 48 hrs by SRB assay; details: UACC-62, 48 h
SK-OV-3 = experiment: Growth inhibition of human SKOV3 cells after 48 hrs by SRB assay; details: SK-OV-3, 48 h
SNB-75 = experiment: Growth inhibition of human SNB75 cells after 48 hrs by SRB assay; details: SNB-75, 48 h

In the case of `Nc1nn(C(=O)Nc2c(F)cccc2F)c2ccccc12`, the GI50 (K562) is reported as < 100 µM, the GI50 (DU-145) is reported as 62.3 µM and the GI50 (EKVX) is reported as 84 µM. The GI50 (786-0) was < 100 µM, the GI50 (BT-549) was 28.8 µM and the GI50 (HL-60(TB)) was 33.2 µM. For the same compound, the GI50 (SK-MEL-28) was 56.3 µM, the GI50 (HCT-15) was 40.9 µM and the GI50 (MCF7) was 60 µM. The GI50 (OVCAR-3) was 65.7 µM, the GI50 (HOP-92) was 17.3 µM and the GI50 (SF-539) was 31.4 µM. For the same compound, the GI50 (SR) was 12.9 µM, the GI50 (PC-3) was < 100 µM and the GI50 (A498) was 31.4 µM. For the same compound, the GI50 (SF-268) was 36.2 µM, the GI50 (OVCAR-8) was 44.2 µM and the GI50 (T47D) was 68.7 µM. For the same compound, the GI50 (OVCAR-5) was < 100 µM, the GI50 (OVCAR-4) was 57.8 µM and the GI50 (NCI-H322M) was < 100 µM. For the same compound, the GI50 (SK-MEL-5) was 39.7 µM, the GI50 (SW-620) was 38.3 µM and the GI50 (SF-295) was 54.8 µM. The GI50 (SNB-19) was < 100 µM, the GI50 (KM12) was 86.2 µM and the GI50 (SN12C) was < 100 µM. It also gave a GI50 (NCI-H522) of 55.1 µM, a GI50 (HCT-116) of 34.8 µM and a GI50 (MDA-MB-231) of 98.8 µM. For the same compound, the GI50 (TK-10) was < 100 µM, the GI50 (U-251) was 96.1 µM and the GI50 (UACC-257) was 71.7 µM. The GI50 (ACHN) was 50.1 µM, the GI50 (COLO 205) was < 100 µM and the GI50 (RXF 393) was 20.2 µM. The GI50 (IGROV-1) was 7.7 µM, the GI50 (Malme-3M) was < 100 µM and the GI50 (HT-29) was 74.6 µM. The GI50 [1] was 73 µM, the GI50 (CAKI-1) was 45.3 µM and the GI50 (M14) was 74.7 µM. It also gave a GI50 (MDA-MB-435) of 54.9 µM, a GI50 (NCI-H23) of 95.6 µM and a GI50 (MOLT-4) of 32.7 µM. It also gave a GI50 (NCI/ADR-RES) of 56.5 µM, a GI50 (A549) of 48.5 µM and a GI50 (NCI-H460) of 33.4 µM. For the same compound, the GI50 (HOP-62) was 51 µM, the GI50 (LOX IMVI) was 49.3 µM and the GI50 (UO-31) was 18.6 µM. For the same compound, the GI50 (SK-MEL-2) was < 100 µM, the GI50 (HCC 2998) was 95.8 µM and the GI50 (RPMI-8226) was 16.1 µM. For the same compound, the GI50 (NCI-H226) was 98.5 µM, the GI50 (UACC-62) was 43.9 µM and the GI50 (SK-OV-3) was < 100 µM.

For `O=C(Nc1ccc(Cc2ccccc2)cc1)Nc1nn(C(=O)Nc2ccc(Cc3ccccc3)cc2)c2ccccc12`, the GI50 (K562) was 40.5 µM, the GI50 (DU-145) was 80 µM and the GI50 (EKVX) was > 100 µM. For the same compound, the GI50 (786-0) was > 100 µM, the GI50 (BT-549) was > 100 µM and the GI50 (HL-60(TB)) was > 100 µM. For the same compound, the GI50 (SK-MEL-28) was > 100 µM, the GI50 (HCT-15) was > 100 µM and the GI50 (SNB-75) was 33.8 µM. For the same compound, the GI50 (MCF7) was > 100 µM, the GI50 (OVCAR-3) was > 100 µM and the GI50 (HOP-92) was 18 µM. For the same compound, the GI50 (SF-539) was > 100 µM, the GI50 (SR) was 16.3 µM and the GI50 (PC-3) was > 100 µM. The GI50 (A498) was 82.4 µM, the GI50 (SF-268) was 75.6 µM and the GI50 (OVCAR-8) was > 100 µM. For the same compound, the GI50 (T47D) was > 100 µM, the GI50 (OVCAR-5) was > 100 µM and the GI50 (OVCAR-4) was > 100 µM. For the same compound, the GI50 (NCI-H322M) was > 100 µM, the GI50 (SK-MEL-5) was > 100 µM and the GI50 (SW-620) was > 100 µM. For the same compound, the GI50 (SF-295) was > 100 µM, the GI50 (SNB-19) was > 100 µM and the GI50 (KM12) was > 100 µM. For the same compound, the GI50 (SN12C) was > 100 µM, the GI50 (NCI-H522) was > 100 µM and the GI50 (HCT-116) was > 100 µM. The GI50 (MDA-MB-231) was 47.1 µM, the GI50 (TK-10) was > 100 µM and the GI50 (U-251) was 70.2 µM. The GI50 (UACC-257) was > 100 µM, the GI50 (ACHN) was > 100 µM and the GI50 (COLO 205) was > 100 µM. For the same compound, the GI50 (RXF 393) was 30.4 µM, the GI50 (IGROV-1) was > 100 µM and the GI50 (Malme-3M) was > 100 µM. The GI50 (HT-29) was > 100 µM, the GI50 [1] was 74.2 µM and the GI50 (CAKI-1) was > 100 µM. The GI50 (M14) was > 100 µM, the GI50 (MDA-MB-435) was > 100 µM and the GI50 (NCI-H23) was > 100 µM. For the same compound, the GI50 (MOLT-4) was 63.2 µM, the GI50 (NCI/ADR-RES) was > 100 µM and the GI50 (A549) was > 100 µM. For the same compound, the GI50 (NCI-H460) was > 100 µM, the GI50 (HOP-62) was 59.7 µM and the GI50 (LOX IMVI) was 71 µM. The GI50 (UO-31) was > 100 µM, the GI50 (SK-MEL-2) was > 100 µM and the GI50 (HCC 2998) was > 100 µM. The GI50 (RPMI-8226) was > 100 µM, the GI50 (NCI-H226) was > 100 µM and the GI50 (UACC-62) was 41.6 µM. The GI50 (SK-OV-3) was > 100 µM.
